Values of other authors as cited in patent US20260130395A1, “Water Dispersible Botanical Compositions” (Aquila Black Limited, priority 2021, published 2026).

Biological target: T1, 5-HT3 serotonin receptor (Homo sapiens, UniProt P46098)
T1 sequence (P46098 24-478): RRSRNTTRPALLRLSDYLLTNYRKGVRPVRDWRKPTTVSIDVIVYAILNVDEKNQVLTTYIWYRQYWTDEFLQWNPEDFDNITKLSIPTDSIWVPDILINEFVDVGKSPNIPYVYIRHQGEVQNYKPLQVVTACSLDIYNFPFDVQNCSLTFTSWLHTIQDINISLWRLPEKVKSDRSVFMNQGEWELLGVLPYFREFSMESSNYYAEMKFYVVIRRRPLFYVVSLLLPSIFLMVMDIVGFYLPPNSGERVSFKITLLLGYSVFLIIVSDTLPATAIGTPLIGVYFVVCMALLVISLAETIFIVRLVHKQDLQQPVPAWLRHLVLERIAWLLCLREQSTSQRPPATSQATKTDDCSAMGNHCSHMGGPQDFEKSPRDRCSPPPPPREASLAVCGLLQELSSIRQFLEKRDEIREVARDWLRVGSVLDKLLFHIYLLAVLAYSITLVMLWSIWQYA
Conditions: Nebrisi et al. 2020, Front. Pharmacol. 11:1274; cited from earlier work

## COc1cc(CNC(=O)CCCC/C=C/C(C)C)ccc1O [capsaicin]
  mode of action at the 5-HT3 serotonin receptor: negative allosteric modulator
